Test results as given in ChEMBL document CHEMBL1201862, “PubChem BioAssay data set” (2004).
One block for each compound: values may come before it. Active and inactive are the calls of the source.

Columns and labels:
[1] = molecular target: T1, RNA-editing ligase 1, mitochondrial (Trypanosoma brucei brucei, UniProt P86926); test: inhibition of trypanosome RNA editing ligase – biochemical, fluorescence, Trypanosoma brucei, dose response (AID 1117295); assay type: functional
T1 sequence (P86926 whole entry): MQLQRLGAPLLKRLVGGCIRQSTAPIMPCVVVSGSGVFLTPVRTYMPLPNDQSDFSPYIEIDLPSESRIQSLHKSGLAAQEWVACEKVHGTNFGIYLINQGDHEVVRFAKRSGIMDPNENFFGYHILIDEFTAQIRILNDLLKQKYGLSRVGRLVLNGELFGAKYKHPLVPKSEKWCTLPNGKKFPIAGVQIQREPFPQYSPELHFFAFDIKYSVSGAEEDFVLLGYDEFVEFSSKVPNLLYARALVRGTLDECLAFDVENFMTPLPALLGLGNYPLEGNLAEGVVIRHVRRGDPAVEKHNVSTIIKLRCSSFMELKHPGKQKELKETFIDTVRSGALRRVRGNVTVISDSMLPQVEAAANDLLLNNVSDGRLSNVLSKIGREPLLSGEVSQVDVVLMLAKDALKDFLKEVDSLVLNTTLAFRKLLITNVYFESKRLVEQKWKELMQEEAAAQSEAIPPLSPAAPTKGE

[2] = molecular target: T2, Corticotropin-releasing factor receptor 2/Corticotropin-releasing factor-binding protein (Homo sapiens, UniProt P24387+Q13324); test: Dose Response confirmation of uHTS hits for small molecule antagonists of the CRF-binding protein and CRF-R2 receptor complex.; assay type: functional; details: read-out: IC50_Mean
T2 sequence (Q13324 whole entry): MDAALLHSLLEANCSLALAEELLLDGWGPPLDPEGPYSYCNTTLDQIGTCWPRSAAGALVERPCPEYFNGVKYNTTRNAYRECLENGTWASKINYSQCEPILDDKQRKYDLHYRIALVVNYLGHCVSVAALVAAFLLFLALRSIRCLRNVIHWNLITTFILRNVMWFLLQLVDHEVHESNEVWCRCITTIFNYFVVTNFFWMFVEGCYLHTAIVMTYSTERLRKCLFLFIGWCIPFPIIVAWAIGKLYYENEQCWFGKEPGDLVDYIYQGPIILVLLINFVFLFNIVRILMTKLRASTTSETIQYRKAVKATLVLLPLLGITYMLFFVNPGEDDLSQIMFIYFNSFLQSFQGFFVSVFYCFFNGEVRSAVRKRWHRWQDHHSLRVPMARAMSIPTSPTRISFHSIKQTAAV
T2 sequence (P24387 whole entry): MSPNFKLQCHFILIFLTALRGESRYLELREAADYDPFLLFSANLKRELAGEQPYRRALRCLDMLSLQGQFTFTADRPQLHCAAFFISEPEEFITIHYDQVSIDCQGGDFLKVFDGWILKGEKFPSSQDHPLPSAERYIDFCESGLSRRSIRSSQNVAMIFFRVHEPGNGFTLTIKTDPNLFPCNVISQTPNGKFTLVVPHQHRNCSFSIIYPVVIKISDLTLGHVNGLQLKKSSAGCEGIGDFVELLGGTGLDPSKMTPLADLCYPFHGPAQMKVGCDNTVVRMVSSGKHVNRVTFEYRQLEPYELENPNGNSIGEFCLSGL

[3] = molecular target: T3, DNA repair protein RAD52 homolog (Homo sapiens, UniProt P43351); assay type: functional, biochemical
T3 sequence (P43351 whole entry): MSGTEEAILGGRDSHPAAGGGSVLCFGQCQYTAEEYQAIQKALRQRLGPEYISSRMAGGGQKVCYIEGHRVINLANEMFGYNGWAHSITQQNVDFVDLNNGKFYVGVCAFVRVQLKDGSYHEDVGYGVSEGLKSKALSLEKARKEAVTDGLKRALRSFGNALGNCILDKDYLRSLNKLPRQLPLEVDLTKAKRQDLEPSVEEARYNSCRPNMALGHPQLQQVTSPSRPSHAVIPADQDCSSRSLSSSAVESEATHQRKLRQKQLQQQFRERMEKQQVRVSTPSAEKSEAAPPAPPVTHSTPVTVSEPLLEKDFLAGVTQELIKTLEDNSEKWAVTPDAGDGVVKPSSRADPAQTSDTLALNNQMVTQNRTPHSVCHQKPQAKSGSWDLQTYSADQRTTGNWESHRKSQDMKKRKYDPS

[4] = molecular target: T2, Corticotropin-releasing factor receptor 2/Corticotropin-releasing factor-binding protein; test: activators of CRF receptor 2 with binding protein – uHTS hits, confirmation (AID 602473); assay type: functional; details: read-out: EC50_Mean
[5] = A549 cell cytotoxicity, dose response, cytotoxicity control, plate reader, cherry-pick, antagonist series (AID 743412); assay type: functional, cell-based
[6] = blockade of melanocortin 4 receptor signaling – cell-based, plate reader, cherry pick, counter-screen for LGR2 antagonist project, dose response (AID 743444); assay type: functional;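 further: transfected HEK 293 cells stimulated with alpha-MSH peptide; potency of inhibitors of the alpha-MSH evoked signal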
[7] = blockers of bursicon-stimulated LGR2 cAMP reporter – cell-based, HEK293, CRE-luciferase reporter, cherry pick, set 2, dose response (AID 743343); assay type: functional;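 further: transfected cells were stimulated with diluted bursicon conditioned medium after compound addition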
HEK293 = test: EBV LMP1 TES2 canonical NF-kB signalling blockers – cell-based, HEK293, luciferase, cherry-pick, dose response (AID 588343); assay type: functional; details: Homo sapiens
[8] = HIV-1 Vif–A3G interaction blockers – biochemical, TR-FRET, GST-Vif 1-94, biotin-A3G peptide, dose response retest, primary screen (AID 1117319); assay type: functional;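 further: TR-FRET signal of purified GST-Vif binding a biotinylated A3G peptide; inhibitors lower the FRET signal by blocking Vif and A3G binding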
HT-1080 = test: HT1080 cell viability loss – fluorescence readout (AID 620); assay type: functional, cell-based; details: Homo sapiens
[9] = molecular target: Luciferin 4-monooxygenase (Photinus pyralis, UniProt P08659); test: Counter Screen for Luciferase-based Assay Positives. [Related pubchem assays: 620, 618, 411 ]
Chain of Luciferin 4-monooxygenase (P08659 whole entry): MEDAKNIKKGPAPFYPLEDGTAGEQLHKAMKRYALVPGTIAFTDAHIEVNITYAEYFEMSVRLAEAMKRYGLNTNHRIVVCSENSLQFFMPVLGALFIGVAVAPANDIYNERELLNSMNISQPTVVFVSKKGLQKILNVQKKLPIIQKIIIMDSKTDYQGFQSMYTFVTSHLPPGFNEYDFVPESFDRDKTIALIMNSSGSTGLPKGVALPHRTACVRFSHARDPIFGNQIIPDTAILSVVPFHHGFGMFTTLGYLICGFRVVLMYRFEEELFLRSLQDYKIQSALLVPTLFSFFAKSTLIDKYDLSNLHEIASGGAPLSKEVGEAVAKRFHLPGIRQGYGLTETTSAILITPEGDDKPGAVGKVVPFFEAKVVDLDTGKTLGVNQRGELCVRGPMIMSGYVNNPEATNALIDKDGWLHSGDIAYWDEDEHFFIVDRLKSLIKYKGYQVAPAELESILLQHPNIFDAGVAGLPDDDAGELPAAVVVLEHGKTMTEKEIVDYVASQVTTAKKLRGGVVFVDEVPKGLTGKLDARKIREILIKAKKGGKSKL

[10] = molecular target: T4, Trace amine-associated receptor 1 (Homo sapiens, UniProt Q96RJ0); test: Fluorescence-based cell-based high throughput dose response assay to identify agonists of the human trace amine associated receptor 1 (TAAR1).; assay type: functional
T4 sequence (Q96RJ0 whole entry): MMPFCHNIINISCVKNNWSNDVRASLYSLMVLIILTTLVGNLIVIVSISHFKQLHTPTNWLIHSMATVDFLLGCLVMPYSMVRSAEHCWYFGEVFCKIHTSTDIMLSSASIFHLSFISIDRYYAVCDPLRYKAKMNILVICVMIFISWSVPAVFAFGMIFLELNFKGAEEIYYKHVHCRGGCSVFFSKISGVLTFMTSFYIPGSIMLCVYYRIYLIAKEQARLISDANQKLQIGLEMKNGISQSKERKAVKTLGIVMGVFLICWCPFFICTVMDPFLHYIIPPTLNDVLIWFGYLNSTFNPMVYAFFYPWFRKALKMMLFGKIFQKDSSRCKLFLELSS

cells [11] = assay type: functional, cell-based
[12] = molecular target: T4, Trace amine-associated receptor 1; test: Counterscreen for agonists of the human trace amine associated receptor 1 (hTAAR1): Fluorescence-based cell-based high throughput dose response assay to identify hTAAR1 agonist that also desensitize TAAR1 receptor response.; assay type: functional
cells [13] = assay type: functional, cell-based; remark: listed apart in the source
Estrogen receptor beta = Estrogen receptor beta (Homo sapiens, UniProt Q92731);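 further: recombinant ER-beta bound to coactivator SRC1 peptide in presence of estradiol agonist; inhibitors block coactivator peptide binding and lower the FRET signal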
Chain of Estrogen receptor beta (Q92731 whole entry): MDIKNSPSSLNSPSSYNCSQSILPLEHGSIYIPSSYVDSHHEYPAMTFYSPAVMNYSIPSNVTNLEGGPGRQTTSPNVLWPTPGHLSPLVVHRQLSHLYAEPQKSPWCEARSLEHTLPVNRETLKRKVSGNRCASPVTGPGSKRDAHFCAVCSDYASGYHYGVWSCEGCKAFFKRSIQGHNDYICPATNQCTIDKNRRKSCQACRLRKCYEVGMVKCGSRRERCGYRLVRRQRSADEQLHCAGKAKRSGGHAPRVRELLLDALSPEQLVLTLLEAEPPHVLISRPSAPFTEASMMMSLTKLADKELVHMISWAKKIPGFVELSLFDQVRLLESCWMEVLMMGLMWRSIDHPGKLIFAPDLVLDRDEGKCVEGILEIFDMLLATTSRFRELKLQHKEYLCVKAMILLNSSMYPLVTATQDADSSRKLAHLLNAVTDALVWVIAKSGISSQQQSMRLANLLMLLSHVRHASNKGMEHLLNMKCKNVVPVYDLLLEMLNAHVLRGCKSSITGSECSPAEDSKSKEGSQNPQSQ

Streptococcus = test: GAS UMAA2166 growth inhibition – luminescence, BacTiterGlo, counter-screen for streptokinase expression inhibitor project, dose response (AID 1915); assay type: functional, organism-based;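 further: potency for reduction of bacterial viability or growth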
[14] = HGIII-sPLA2 enzyme inhibition potency – biochemical, QFRET, IC50, dose response (AID 743457);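 further: green fluorescence rise as the enzyme cleaves BODIPY PC-A2 in liposomes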
[15] = test system: Streptococcus sp. 'group A'; test: Streptococcus pyogenes SK(-)GAS viability under kanamycin – luminescence, BacTiterGlo, confirmation, counter-screen for streptokinase expression inhibitor project, dose response (AID 1900); assay type: functional, organism-based
Paired box protein Pax-8 = Paired box protein Pax-8 (Homo sapiens, UniProt Q06710); test: PAX8 transcriptional activity inhibition in RMG-I – RMG-I cells, luciferase, cherry-pick, dose response (AID 687027); assay type: functional, cell-based;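 further: luciferase reporter driven by Pax8 target thyroperoxidase promoter measured by SteadyGlo luminescence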
Chain of Paired box protein Pax-8 (Q06710 whole entry): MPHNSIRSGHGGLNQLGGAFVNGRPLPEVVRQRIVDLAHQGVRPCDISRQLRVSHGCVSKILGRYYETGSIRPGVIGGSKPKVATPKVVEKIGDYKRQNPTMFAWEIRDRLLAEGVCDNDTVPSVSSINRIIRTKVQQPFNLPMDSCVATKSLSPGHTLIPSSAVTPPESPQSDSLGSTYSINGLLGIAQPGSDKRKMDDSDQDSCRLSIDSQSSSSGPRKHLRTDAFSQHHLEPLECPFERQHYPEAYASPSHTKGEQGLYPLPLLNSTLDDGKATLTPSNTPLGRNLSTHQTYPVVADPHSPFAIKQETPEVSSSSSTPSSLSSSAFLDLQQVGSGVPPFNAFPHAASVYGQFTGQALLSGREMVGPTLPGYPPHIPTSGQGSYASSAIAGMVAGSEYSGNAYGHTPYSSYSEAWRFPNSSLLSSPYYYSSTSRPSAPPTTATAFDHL

[16] = IGROV1 cell killing – plate reader, dry powder samples, PAX8 inhibitor project, dose response (AID 743043); assay type: functional, cell-based; details: IGROV-1

- IC50 [1]: > 96.6 µM (inactive)
SMILES: COc1cc(CN(CCN(C)C)Cc2ccccc2)ccc1OCc1ccccc1

- IC50 [2]: > 47.1 µM (inactive)
- AC50 [3]: 21.4 µM (active)
- EC50 [4]: > 53 µM (inactive)
SMILES: CC(=O)c1cccc(Nc2cc(C)nc3c(C)cccc23)c1

SMILES: CC(=O)c1ccc(NC(=O)c2noc3c2CCC3)cc1
- AC50 [5]: > 52 µM (inactive)
- AC50 [6]: 3.68 µM (active)
- AC50 [7]: 2.77 µM (active)
- AC50 (HEK293): 1.92 µM (active)

- IC50 [8]: > 100 µM (active)
SMILES: Cc1cc(NC(=O)CSc2nnc(-c3ccoc3C)n2N)no1

SMILES: COCCn1c(C)cc(C(=O)CSc2nnc3ccccn23)c1C
- AC50 [5]: > 52 µM (inactive)
- EC50 (HT-1080): > 50 µM (not active)
- EC50 [9]: < 0.2 µM (active)
- AC50 [6]: 3.66 µM (active)
- AC50 [7]: 4.03 µM (active)
- AC50 (HEK293): 2.88 µM (active)

SMILES: Cc1ccsc1/C=N\Nc1cnnc(O)c1Cl
- EC50 [10]: 2.16 µM (active)
- IC50 (cells [11]): > 29.9 µM (inactive)
- IC50 [12]: 8.29 µM (active)
- EC50 (cells [13]): > 29.9 µM (inactive)

- IC50 (Estrogen receptor beta): > 50 µM (not active)
SMILES: COc1ccc(N2CCN(C(=O)CCCn3c(=O)[nH]c4ccsc4c3=O)CC2)cc1

SMILES: O=C(N[C@@H](Cc1cccnc1)C(=O)N1CCC[C@H]1C(=O)NCCc1ccccc1Cl)c1cccs1
- EC50 [10]: 8.12 µM (active)
- IC50 (cells [11]): > 29.9 µM (inactive)
- IC50 [12]: 14.4 µM (inactive)
- EC50 (cells [13]): > 29.9 µM (inactive)

SMILES: Cc1cc(C)c2nc(NNC(=O)c3ccc(S(=O)(=O)N4CCCCC4)cc3)sc2c1
- EC50 (Streptococcus): 4.91 µM (active)
- IC50 [14]: 19 µM (inactive)
- EC50 [15]: 1.92 µM (active)

SMILES: Cc1ccc(S(=O)(=O)Nc2ccc3c(c2)C(=O)N([C@H](C)CO)C[C@@H](C)[C@H](CN(C)S(=O)(=O)c2ccc(C)cc2)OCCCC[C@H](C)O3)cc1
- AC50 (Paired box protein Pax-8): 9.07 µM (active)
- AC50 [16]: 51.4 µM (active)
